Measurements reported in patent US20190216725A1, “DRUG DELIVERY SYSTEM FOR THE DELIVERY OF INTEGRASE INHIBITORS” (MERCK SHARP & DOHME CORP., priority 2016, published 2019).

Assay: maximum solubility in PBS + solutol
Assay type: physicochemical
Settings: aqueous with cosolvent or surfactant or cyclodextrin

| Structure (SMILES) | solubility (in PBS+2 wt % solutol) [µg/mL] | solubility (in PBS+5 wt % solutol) [µg/mL] |
| --- | --- | --- |
| CCN1C[C@@H]2C[C@@H](OC)c3c(C(=O)NCc4ccc(F)cc4F)c(=O)c(O)c(n32)C1=O [active ingredient 2, (3aS,5R)-N-(2,4-difluorobenzyl)-2-ethyl-8-hydroxy-5-methoxy-1,7-dioxo-2,3,3a,4,5,7-hexahydro-1H-pyrazino[2,1,6-cd]indolizine-6-carboxamide] | 310 |  |
| C[C@]12CCCO[C@H]1Cn1cc(C(=O)NCc3ccc(F)cc3F)c(=O)c(O)c1C2=O [active ingredient 1, (4aS,11aR)-N-(2,4-difluorobenzyl)-6-hydroxy-4a-methyl-5,7-dioxo-2,3,4,4a,5,7,11,11a-octahydropyrano[3,2-b]quinolizine-8-carboxamide] | 150 | 260 |
